Data taken from PMC6690571 (ACS Omega, 2019).
Blank lines part the entries; values can stand above or below the molecule they belong to.

Key:
[1] = biological target: T1, mGlu5 (Homo sapiens, UniProt P41594); experiment: standard mGlu5 calcium mobilization functional assay, human mGlu5; type: cell-based; details: for EC50: EC50 (PAM)
[2] = biological target: T1, mGlu5; experiment: standard mGlu5 calcium mobilization functional assay, PAM and NAM modes; type: cell-based
[3] = biological target: T1, mGlu5; details: Figure 1 ref 14; cited from earlier work
[4] = human mGlu5 assay, synthetic material

T1 sequence (P41594 21-1212): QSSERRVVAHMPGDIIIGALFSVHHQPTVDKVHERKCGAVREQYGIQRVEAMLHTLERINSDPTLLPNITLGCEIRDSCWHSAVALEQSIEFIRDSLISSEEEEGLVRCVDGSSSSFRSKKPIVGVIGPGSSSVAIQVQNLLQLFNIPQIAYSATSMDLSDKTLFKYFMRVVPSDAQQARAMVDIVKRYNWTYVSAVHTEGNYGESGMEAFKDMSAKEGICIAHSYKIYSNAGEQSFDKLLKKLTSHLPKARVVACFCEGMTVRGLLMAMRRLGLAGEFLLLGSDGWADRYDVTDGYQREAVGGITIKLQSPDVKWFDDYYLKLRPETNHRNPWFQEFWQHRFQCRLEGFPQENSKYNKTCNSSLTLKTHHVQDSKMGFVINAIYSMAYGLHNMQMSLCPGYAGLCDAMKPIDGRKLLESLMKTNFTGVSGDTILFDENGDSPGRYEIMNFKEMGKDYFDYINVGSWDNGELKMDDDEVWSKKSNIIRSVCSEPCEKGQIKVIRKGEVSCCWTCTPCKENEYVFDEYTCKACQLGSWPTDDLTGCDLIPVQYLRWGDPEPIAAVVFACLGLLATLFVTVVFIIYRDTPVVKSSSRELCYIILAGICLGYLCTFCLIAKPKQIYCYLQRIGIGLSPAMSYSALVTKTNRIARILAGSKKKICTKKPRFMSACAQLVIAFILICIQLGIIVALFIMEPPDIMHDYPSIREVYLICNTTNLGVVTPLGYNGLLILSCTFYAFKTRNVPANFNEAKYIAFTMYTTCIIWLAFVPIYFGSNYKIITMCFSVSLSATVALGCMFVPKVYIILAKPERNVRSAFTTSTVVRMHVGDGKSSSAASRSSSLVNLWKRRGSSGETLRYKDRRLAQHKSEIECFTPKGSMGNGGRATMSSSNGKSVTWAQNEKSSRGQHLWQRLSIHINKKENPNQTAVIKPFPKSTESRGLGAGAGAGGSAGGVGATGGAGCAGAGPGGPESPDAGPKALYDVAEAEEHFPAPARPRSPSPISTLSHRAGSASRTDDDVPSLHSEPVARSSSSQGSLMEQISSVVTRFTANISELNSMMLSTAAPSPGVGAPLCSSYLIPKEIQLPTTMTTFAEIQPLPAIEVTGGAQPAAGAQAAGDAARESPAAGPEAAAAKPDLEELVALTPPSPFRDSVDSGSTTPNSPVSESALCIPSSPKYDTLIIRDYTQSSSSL

EC50 ([1]; kit-produced M4, human mGlu5 assay, material from the BMO production kit): 510 nM
EC50 ([1]; synthetic-derived M4, human mGlu5 assay, synthetic material): 315 nM
% Glu Max, kit-produced M4 ([1]; human mGlu5 assay, material from the BMO production kit): 75 % Glu Max
% Glu Max, synthetic-derived M4 [1, 4]: 77%
agonism (no agonism noted up to), synthetic-derived M4 [1, 4]: > 30 µM
SMILES: NC(=O)c1ccc(C#Cc2cccc(F)c2)cn1 [M4, 5-((3-Fluorophenyl)ethynyl)picolinamide]

activity in NAM mode [2]: inactive
activity in PAM mode [2]: inactive
SMILES: O=C(C(=O)c1cccc(F)c1)c1ccc(C(=O)NC2CCC2)nc1 [M5, N-Cyclobutyl-5-(2-(3-fluorophenyl)-2-oxoacetyl)picolinamide]

activity in NAM mode [2]: inactive
activity in PAM mode [2]: inactive
SMILES: O=C(c1ccc(C(=O)NC2CCC2)nc1)c1cccc(F)c1 [M6, N-Cyclobutyl-5-(3-fluorobenzoyl)picolinamide]

SMILES: O=C(O)c1ccc(C#Cc2cccc(F)c2)cn1 [compound 3, 5-((3-Fluorophenyl)ethynyl)picolinic Acid]
activity of metabolite M2, the product of amide hydrolysis [3]: inactive
